Holding throughout (assay type): biochemical
Test [1] addresses T1, steroid sulphatase (STS) (Homo sapiens, UniProt P08842).
T1 construct: STS enzyme extracted from human placenta and purified
T1 sequence (P08842 22-583): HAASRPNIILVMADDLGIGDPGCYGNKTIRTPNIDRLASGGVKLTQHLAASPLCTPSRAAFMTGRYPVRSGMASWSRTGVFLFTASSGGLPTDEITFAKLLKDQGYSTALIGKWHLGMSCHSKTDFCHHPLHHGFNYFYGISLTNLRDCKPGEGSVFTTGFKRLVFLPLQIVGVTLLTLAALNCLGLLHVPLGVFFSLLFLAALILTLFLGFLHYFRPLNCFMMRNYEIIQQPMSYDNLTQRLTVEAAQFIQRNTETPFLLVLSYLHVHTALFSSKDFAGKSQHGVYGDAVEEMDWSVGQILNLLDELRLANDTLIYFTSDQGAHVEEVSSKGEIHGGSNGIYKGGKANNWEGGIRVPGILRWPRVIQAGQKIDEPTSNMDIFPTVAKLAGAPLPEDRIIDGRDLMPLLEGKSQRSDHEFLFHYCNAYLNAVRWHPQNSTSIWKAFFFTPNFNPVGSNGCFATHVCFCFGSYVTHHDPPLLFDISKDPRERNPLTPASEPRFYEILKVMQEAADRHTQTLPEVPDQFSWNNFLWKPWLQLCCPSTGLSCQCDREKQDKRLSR
Briefly: radiolabelled [3H] oestrone sulphate hydrolysis, purified placental STS, […] inhibitor.

For test [2], the target named is T1, steroid sulphatase (STS). Put plainly: radiolabelled [3H] oestrone sulphate hydrolysis, purified placental STS, […] inhibitor (also MCF-7 cell IC50 […]).
In test [3] the target is T1, steroid sulphatase (STS). The test is described as above. The source holds these as a separate data set.
The target in test [4] is T1, steroid sulphatase (STS). The test is described as above. This is another data set of the same source.

For orientation: remaining activity means the activity still measured, relative to the control. Low values mean a large loss of activity, high ones a small loss of activity.

As to `NS(=O)(=O)Oc1ccc2cc(-c3cn(-c4cccc(Cl)c4)nn3)ccc2c1` [3C, 6-(1-(3-Chlorophenyl)-1H-1,2,3-triazol-4-yl)naphthalen-2-yl sulphamate], the remaining activity at 0.5 µM on steroid sulphatase (STS) [1] is 9.66%.

On to `NS(=O)(=O)Oc1ccc2cc(-c3cn(-c4ccc(Cl)cc4)nn3)ccc2c1` [3F, 6-(1-(4-Chlorophenyl)-1H-1,2,3-triazol-4-yl)naphthalen-2-yl sulphamate], for which the remaining activity at 0.5 µM on steroid sulphatase (STS) [1] is 18.7%.

Consider `NS(=O)(=O)Oc1ccc2cc(-c3cn(-c4ccccc4Cl)nn3)ccc2c1` [3I], for which the remaining activity at 0.5 µM at steroid sulphatase (STS) [2] came to 16.9%.

The compound `NS(=O)(=O)Oc1ccc2cc(-c3cn(-c4cccc(Br)c4)nn3)ccc2c1` [3D, 6-(1-(3-Bromophenyl)-1H-1,2,3-triazol-4-yl)naphthalen-2-yl sulphamate] gave a remaining activity at 0.5 µM at steroid sulphatase (STS) [1] of 9.62%.

At steroid sulphatase (STS) [1], `NS(=O)(=O)Oc1ccc2cc(-c3cn(-c4ccccc4Br)nn3)ccc2c1` [3J, 6-(1-(2-Bromophenyl)-1H-1,2,3-triazol-4-yl)naphthalen-2-yl sulphamate] gave a remaining activity at 0.5 µM of 15.9%.

At steroid sulphatase (STS) [1], `NS(=O)(=O)Oc1ccc2cc(-c3cn(-c4ccc(Br)cc4)nn3)ccc2c1` [3G, 6-(1-(4-Bromophenyl)-1H-1,2,3-triazol-4-yl)naphthalen-2-yl sulphamate] registered a remaining activity at 0.5 µM of 23.1%.

In turn, `NS(=O)(=O)Oc1ccc2cc(-c3cn(-c4cc(F)cc(F)c4)nn3)ccc2c1` [3K, 6-(1-(3,5-Difluorophenyl)-1H-1,2,3-triazol-4-yl)naphthalen-2-yl sulphamate] displayed a remaining activity at 0.5 µM at steroid sulphatase (STS) [3] of 14%.

`NS(=O)(=O)Oc1ccc2cc(-c3cn(-c4ccc(F)c(F)c4F)nn3)ccc2c1` [3L, 6-(1-(2,3,4-Trifluorophenyl)-1H-1,2,3-triazol-4-yl)naphthalen-2-yl sulphamate]: the remaining activity at 0.5 µM on steroid sulphatase (STS) [4] is 7.98%.

`NS(=O)(=O)Oc1ccc2cc(-c3cn(-c4cccc(F)c4)nn3)ccc2c1` [3B, 6-(1-(3-Fluorophenyl)-1H-1,2,3-triazol-4-yl)naphthalen-2-yl sulphamate] came in with a remaining activity at 0.5 µM on steroid sulphatase (STS) [1] of 17.4%.

These data come from article PMC7744152, “New potent steroid sulphatase inhibitors based on 6-(1-phenyl-1H-1,2,3-triazol-4-yl)naphthalen-2-yl sulphamate derivatives” (Journal of Enzyme Inhibition and Medicinal Chemistry, 2020).
